From the supplement of paper PMC11061612

How the values were obtained:
769-P (Kidney Carcinoma) = assay: Bliss excess, mean over the matrix (fraction); higher = more synergy
How it was run: (§1)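 Bliss excess equals the observed combination effect minus the expected value EA + EB − EA·EB, where EA and EB are the effects of each agent alone. Combination Emax is the second-highest inhibition within the matrix. Inhibition was scaled from CellTiter-Glo 2.0 luminescence, with 0 set by vehicle wells and 1 by blank wells, after 72 hours of two-drug dosing of cells plated in 1536-well plates.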

[1] = tested on: DMS-53 (Small Cell Lung Carcinoma); assay: as above
How it was run: as §1

[2] = tested on: DU-4475 (Breast Carcinoma); assay: as above
How it was run: as §1

[3] = tested on: JHU-022 (Oral Cavity Carcinoma); assay: as above
How it was run: as §1

[4] = tested on: LU-165 (Small Cell Lung Carcinoma); assay: as above
How it was run: as §1

[5] = tested on: MDA-MB-436 (Breast Carcinoma); assay: as above
How it was run: as §1

NB13 (Neuroblastoma) = assay: as above
How it was run: as §1

[6] = tested on: NCI-H441 (Lung Adenocarcinoma); assay: as above
How it was run: as §1

[7] = tested on: SW620 (Colorectal Carcinoma); assay: as above
How it was run: as §1

[8] = tested on: TE-10 (Esophageal Squamous Cell Carcinoma); assay: as above
How it was run: as §1

WM1552C (Melanoma) = assay: as above
How it was run: as §1

[9] = tested on: TE-10 (Esophageal Squamous Cell Carcinoma); assay: combination Emax (second highest fraction inhibited in the dose matrix, 72 h); higher = more inhibition; extreme values may be limits of the assay
How it was run: as §1

| Structure (SMILES) | Bliss excess (769-P (Kidney Carcinoma)) | Bliss excess [1] | Bliss excess [2] | Bliss excess [3] | Bliss excess [4] | Bliss excess [5] | Bliss excess (NB13 (Neuroblastoma)) | Bliss excess [6] | Bliss excess [7] | Bliss excess [8] | Bliss excess (WM1552C (Melanoma)) | combination Emax [9] |
| --- | --- | --- | --- | --- | --- | --- | --- | --- | --- | --- | --- | --- |
| COc1cccc(OCCCN)c1-c1cc(Nc2cnc(C#N)cn2)n[nH]1 [Prexasertib] + C[C@@H]1COCCN1C2=NC(=NC(=C2)C3(CC3)[S@](=N)(=O)C)C4=C5C=CNC5=NC=C4 [AZD6738] (first compound max 1 µM, 7x7, partner max 10 µM) | 0.0022 | 0.032 | -0.022 | -0.0238 | -0.0402 | 0.0051 | -0.0603 | 0.0009 | 0.013 | -0.0244 | -0.0372 | 0.945 |
| CN(C)CCCOc1ccc(-c2ccc3ncc4c(c3c2)n(C2CCOCC2)c(=O)n4C)cn1 [AZD0156] + C=CCn1c(=O)c2cnc(Nc3ccc(N4CCN(C)CC4)cc3)nc2n1-c1cccc(C(C)(C)O)n1 [AZD1775] (first compound max 1 µM, partner max 1 µM) | -0.0025 | -0.028 | -0.0036 | -0.0446 | -0.118 | -0.0623 | 0.0215 | -0.0963 | -0.0262 | -0.033 | 0.0116 | 0.808 |
| CCN(CCO)CCCOc1ccc2c(Nc3cc(CC(=O)Nc4cccc(F)c4)[nH]n3)ncnc2c1 [AZD2811] + O=C(c1cc(Cc2n[nH]c(=O)c3ccccc23)ccc1F)N1CCN(C(=O)C2CC2)CC1 [Olaparib] (first compound max 1 µM, 7x7, partner max 10 µM) | -0.018 | -0.014 | 0.0213 | -0.021 | -0.0454 | -0.0533 | 0.0211 | -0.0417 | 0.0318 | 0.0515 | -0.027 | 0.4 |
| CC1(C)CCC(CN2CCN(c3ccc(C(=O)NS(=O)(=O)c4ccc(NCC5CCOCC5)c([N+](=O)[O-])c4)c(Oc4cnc5[nH]ccc5c4)c3)CC2)=C(c2ccc(Cl)cc2)C1 [Venetoclax] + C[C@@H]1COCCN1C2=NC(=NC(=C2)C3(CC3)[S@](=N)(=O)C)C4=C5C=CNC5=NC=C4 [AZD6738] (first compound max 1 µM, 7x7, partner max 10 µM) | -0.0067 | 0.119 | 0.0062 | -0.007 | -0.117 | -0.0167 | 0.0633 | -0.0483 | -0.0365 | -0.0361 | -0.0603 | 0.827 |
| CC1(C)CCC(CN2CCN(c3ccc(C(=O)NS(=O)(=O)c4ccc(NCC5CCOCC5)c([N+](=O)[O-])c4)c(Oc4cnc5[nH]ccc5c4)c3)CC2)=C(c2ccc(Cl)cc2)C1 [Venetoclax] + CCN(CCO)CCCOc1ccc2c(Nc3cc(CC(=O)Nc4cccc(F)c4)[nH]n3)ncnc2c1 [AZD2811] (first compound max 1 µM, 7x7, partner max 1 µM) | -0.0637 | 0.069 | 0.0087 | -0.0139 | -0.0665 | -0.023 | 0.0534 | -0.044 | -0.0243 | -0.0502 | -0.0804 | 0.59 |
| CCc1c2c(nc3ccc(O)cc13)-c1cc3c(c(=O)n1C2)COC(=O)[C@]3(O)CC [SN-38] + O=C(c1cc(Cc2n[nH]c(=O)c3ccccc23)ccc1F)N1CCN(C(=O)C2CC2)CC1 [Olaparib] (first compound max 0.3 µM, 7x7, partner max 10 µM) | 0.0592 | 0.0457 | -0.0271 | 0.0415 | 0.0203 | 0.0627 | -0.017 | 0.0449 | 0.0524 | 0.0939 | 0.0586 | 0.752 |
| COc1cccc(OCCCN)c1-c1cc(Nc2cnc(C#N)cn2)n[nH]1 [Prexasertib] + C=CCn1c(=O)c2cnc(Nc3ccc(N4CCN(C)CC4)cc3)nc2n1-c1cccc(C(C)(C)O)n1 [AZD1775] (first compound max 1 µM, partner max 1 µM) | 0.0163 | 0.0883 | 0.114 | 0.0861 | -0.0566 | 0.165 | -0.0347 | -0.0383 | 0.0478 | 0.0262 | 0.0412 | 0.976 |
| CC(=O)Nc1cccc(-n2c(=O)n(C3CC3)c(=O)c3c(Nc4ccc(I)cc4F)n(C)c(=O)c(C)c32)c1 [Trametinib] + Cc1nc(-c2cn3c(n2)-c2ccc(-c4cnn(C(C)(C)C(N)=O)c4)cc2OCC3)n(C(C)C)n1 [Taselisib] (first compound max 1 µM, 7x7, partner max 10 µM) | 0.0182 | 0.0285 | 0.0664 | 0.0194 | 0.0388 | 0.0567 | 0.0088 | 0.102 | 0.0527 | 0.127 | 0.0903 | 0.965 |
| C=CCn1c(=O)c2cnc(Nc3ccc(N4CCN(C)CC4)cc3)nc2n1-c1cccc(C(C)(C)O)n1 [AZD1775] + O=C(c1cc(Cc2n[nH]c(=O)c3ccccc23)ccc1F)N1CCN(C(=O)C2CC2)CC1 [Olaparib] (first compound max 1 µM, partner max 10 µM) | -0.0578 | -0.0715 | 0.0395 | -0.0257 | -0.103 | -0.0077 | 0.0008 | -0.0662 | -0.0395 | -0.0196 | -0.0941 | 0.858 |
| CC1(C)CCC(CN2CCN(c3ccc(C(=O)NS(=O)(=O)c4ccc(NCC5CCOCC5)c([N+](=O)[O-])c4)c(Oc4cnc5[nH]ccc5c4)c3)CC2)=C(c2ccc(Cl)cc2)C1 [Venetoclax] + Cc1cc2ncnn2cc1Nc1ncc2c(n1)n(C1CCOCC1)c(=O)n2C [AZD7648] (first compound max 1 µM, 7x7, partner max 10 µM) | -0.0087 | 0.11 | 0.0152 | -0.0392 | -0.0259 | -0.04 | 0.0559 | -0.0437 | -0.0452 | -0.0068 | -0.0571 | 0.477 |
| CC1(C)CCC(CN2CCN(c3ccc(C(=O)NS(=O)(=O)c4ccc(NCC5CCOCC5)c([N+](=O)[O-])c4)c(Oc4cnc5[nH]ccc5c4)c3)CC2)=C(c2ccc(Cl)cc2)C1 [Venetoclax] + C=CCn1c(=O)c2cnc(Nc3ccc(N4CCN(C)CC4)cc3)nc2n1-c1cccc(C(C)(C)O)n1 [AZD1775] (first compound max 1 µM, partner max 1 µM) | -0.0081 | 0.0804 | -0.0262 | -0.0218 | -0.0506 | -0.0202 | 0.078 | 0.002 | -0.0536 | 0.0301 | 0.0354 | 0.856 |
| CC1(C)CCC(CN2CCN(c3ccc(C(=O)NS(=O)(=O)c4ccc(NCC5CCOCC5)c([N+](=O)[O-])c4)c(Oc4cnc5[nH]ccc5c4)c3)CC2)=C(c2ccc(Cl)cc2)C1 [Venetoclax] + CN(C)CCCOc1ccc(-c2ccc3ncc4c(c3c2)n(C2CCOCC2)c(=O)n4C)cn1 [AZD0156] (first compound max 1 µM, 7x7, partner max 1 µM) | -0.0276 | 0.0619 | -0.0158 | -0.0382 | -0.0309 | -0.0319 | 0.021 | -0.0733 | -0.0142 | 0.0071 | -0.0674 | 0.674 |
| C[C@@H]1COCCN1c1cc(C2([S@](C)(=N)=O)CC2)nc(-c2ccnc3[nH]ccc23)n1 [AZD6738] + O=C(c1cc(Cc2n[nH]c(=O)c3ccccc23)ccc1F)N1CCN(C(=O)C2CC2)CC1 [Olaparib] (first compound max 10 µM, 7x7, partner max 10 µM) | -0.0656 | -0.002 | 0.0762 | -0.0489 | -0.0714 | -0.0176 | 0.0511 | 0.0124 | 0.0218 | -0.0141 | 0.0105 | 0.78 |
| CC1(C)CCC(CN2CCN(c3ccc(C(=O)NS(=O)(=O)c4ccc(NCC5CCOCC5)c([N+](=O)[O-])c4)c(Oc4cnc5[nH]ccc5c4)c3)CC2)=C(c2ccc(Cl)cc2)C1 [Venetoclax] + COc1cc(Nc2ncc3c(n2)-c2ccc(Cl)cc2C(c2c(F)cccc2OC)=NC3)ccc1C(=O)O [Alisertib] (first compound max 1 µM, 7x7, partner max 10 µM) | 0.0339 | 0.192 | 0.0933 | -0.0385 | 0.027 | -0.0299 | 0.0028 | -0.0511 | -0.0335 | -0.0401 | -0.0613 | 0.639 |
| CCN(CCO)CCCOc1ccc2c(Nc3cc(CC(=O)Nc4cccc(F)c4)[nH]n3)ncnc2c1 [AZD2811] + C=CCn1c(=O)c2cnc(Nc3ccc(N4CCN(C)CC4)cc3)nc2n1-c1cccc(C(C)(C)O)n1 [AZD1775] (first compound max 1 µM, partner max 1 µM) | -0.0267 | -0.0378 | 0.0523 | -0.0217 | -0.0603 | -0.0158 | 0.0265 | -0.0518 | -0.0367 | 0.0176 | 0.0035 | 0.737 |
| CC1(C)CCC(CN2CCN(c3ccc(C(=O)NS(=O)(=O)c4ccc(NCC5CCOCC5)c([N+](=O)[O-])c4)c(Oc4cnc5[nH]ccc5c4)c3)CC2)=C(c2ccc(Cl)cc2)C1 [Venetoclax] + Cn1cnc2c(F)c(Nc3ccc(Br)cc3Cl)c(C(=O)NOCCO)cc21 [Selumetinib] (first compound max 1 µM, 7x7, partner max 3 µM) | -0.004 | 0.0543 | -0.0057 | -0.0181 | -0.0588 | -0.0303 | -0.0837 | -0.043 | -0.0414 | -0.0404 | -0.0062 | 0.415 |
| CN(C)CCCOc1ccc(-c2ccc3ncc4c(c3c2)n(C2CCOCC2)c(=O)n4C)cn1 [AZD0156] + C[C@@H]1COCCN1C2=NC(=NC(=C2)C3(CC3)[S@](=N)(=O)C)C4=C5C=CNC5=NC=C4 [AZD6738] (first compound max 1 µM, 7x7, partner max 10 µM) | 0.0253 | -0.0249 | -0.0587 | -0.0103 | -0.0515 | -0.0396 | 0.058 | -0.0718 | 0.0308 | -0.0075 | 0.0189 | 0.814 |
